# From EP4772503A1, “LIPOIC ACID DERIVATIVE, VESICLE COMPOUND AND PREPARATION THEREFOR AND USE THEREOF” (Neuboron Medtech Research Institute Ltd., priority 2023, dated 2025)
# How the values were obtained:
# [1] = DLS detection of grain size, PDI and zeta potential of vesicles; assay type: physicochemical; conditions: for PDI / d(nm) / zeta potential (mV): vesicles of the derivative, depolymerization and assembly repeated three times; for grain size of the vesicles: vesicles assembled once, pH below 7.2, FIG. 5
# Description: • ① In this test example, the grain sizes of vesicle compounds formed by three compounds, LA-PEG2-BPA, LA-PEG4-BPA, and LA-PEG4-3-BPA, were detected.
# Preparation of the vesicle nanoparticles to be detected for grain size in this test example includes: An appropriate amount of the corresponding compound was weighed and placed into a sample vial, double-distilled water was added, an appropriate amount of NaOH aqueous solution was added to adjust the pH to between 10 and 11 until the starting material was completely dissolved, followed by addition of an appropriate amount of hydrochloric acid to adjust the pH to below 7.2, thereby completing vesicle assembly.
# ② The lipoic acid derivatives were separately assembled into vesicles, including LA-PEG1-BPA (denoted as L^pB-1), LA-PEG2-BPA (denoted as L^pB-2), LA-PEG4-BPA (denoted as L^pB-3), LA-PEG8-BPA (denoted as L^pB-4), LA-PEG1-3-BPA (denoted as L^mB-1), LA-PEG2-3-BPA (denoted as L^mB-2), LA-PEG4-3-BPA (denoted as L^mB-3), and LA-PEG8-3-BPA (denoted as L^mB-4); the vesicle assembly method in this test example was based on the preparation method of the vesicle examples and depolymerization and assembly were repeatedly three times; the physicochemical properties of the self-assembled vesicles were detected, and the grain size, polymer dispersancy index (PDI), and zeta potential of the vesicles were detected using DLS (dynamic light scattering) technology. Table 1 […]
# [2] = Critical aggregation concentration by Nile Red fluorescence; assay type: physicochemical; conditions: Nile Red 1.0 µM, distilled water
# Description: A mixture of Nile Red (at a concentration of 1.0 µM) and the corresponding BPA lipoic acid derivative (at a concentration of 0-20 mM) in distilled water was oscillated overnight under constant temperature conditions. The fluorescence emission intensity of Nile Red at 525 nm wavelength (λex = 485 nm) was measured using a FluoroMax-4 fluorometer. The critical aggregation concentration of the BPA lipoic acid derivative in aqueous medium was calculated from the intersection point of two linear regression equations.
# The critical aggregation concentration (CAC) refers to the minimum concentration at which a substance forms aggregates in an aqueous solution. When the concentration of a surfactant or colloidal particle in an aqueous solution exceeds the critical aggregation concentration, they begin to self-assemble into aggregates due to intermolecular attractive forces. This process is referred to as aggregation or self-assembly.
PDI [1],d(nm) [1],zeta potential (mV) [1],CAC [2],grain size of the vesicles [1],Structure (SMILES)
0.107,98.9 nm,-32.5 mV,243 µM,,O=C(CCCCC1CCSS1)NCCOCCC(=O)NC(Cc1ccc(B(O)O)cc1)C(=O)O (stereo not drawn) [L^pB-1]
0.015,144.7 nm,-30.9 mV,248 µM,approximately 244 nm,O=C(CCCCC1CCSS1)NCCOCCOCCC(=O)NC(Cc1ccc(B(O)O)cc1)C(=O)O (stereo not drawn) [L^pB-2]
0.217,268.4 nm,-29.35 mV,277 µM,,O=C(CCCCC1CCSS1)NCCOCCOCCOCCOCCOCCOCCOCCOCCC(=O)NC(Cc1ccc(B(O)O)cc1)C(=O)O (stereo not drawn) [L^pB-4]

# The next lines start with the compound.
Structure (SMILES),PDI [1],d(nm) [1],zeta potential (mV) [1],CAC [2],grain size of the vesicles [1]
O=C(CCCCC1CCSS1)NCCOCCC(=O)NC(Cc1cccc(B(O)O)c1)C(=O)O (stereo not drawn) [L^mB-1],0.132,105.3 nm,-30.7 mV,256 µM,
O=C(CCCCC1CCSS1)NCCOCCOCCC(=O)NC(Cc1cccc(B(O)O)c1)C(=O)O (stereo not drawn) [L^mB-2],0.102,149.1 nm,-28.61 mV,254 µM,
O=C(CCCCC1CCSS1)NCCOCCOCCOCCOCCC(=O)NC(Cc1cccc(B(O)O)c1)C(=O)O (stereo not drawn) [L^mB-3],0.209,165.7 nm,-35.20 mV,274 µM,approximately 114 nm
O=C(CCCCC1CCSS1)NCCOCCOCCOCCOCCOCCOCCOCCOCCC(=O)NC(Cc1cccc(B(O)O)c1)C(=O)O (stereo not drawn) [L^mB-4],0.237,284.6 nm,-35.2 mV,280 µM,
